In publication PMC11438102, “Modulation of cannabinoid receptor 2 alters neuroinflammation and reduces formation of alpha-synuclein aggregates in a rat model of nigral synucleinopathy” (Journal of Neuroinflammation, 2024):

What was measured:
[1] = Weekly body weights of AAV2/5-human WT Asyn rats; assay type: in vivo, rat; conditions: low and high cohorts, 6 mg/kg i.p. daily, over 8 weeks, vs vehicle
Procedure: Sprague Dawley male rats (16–18 weeks of age, 400–525 g) were purchased from Charles River Laboratories and acclimated to Emory University animal facilities. Rats were pair housed in standard plexiglass cages under normal 12-hr light cycles and handled in accordance with protocols approved by the IACUC of Emory University in Atlanta, GA. Rats were administered unilateral injections of AAV2/5-human wild-type (WT) Asyn at titers of 2.9–4.3 × 10^11 vector genomes (vg)/mL (termed “low cohort”), which was previously shown to not induce nigral neurotoxicity. Thereby, generating a model with overexpression of human WT Asyn and Asyn-mediated neuroinflammation. One week after surgery, animals were randomly selected to receive daily systemic injections of either SMM-189 (intraperitoneal (i.p.), 6 mg/kg, n = 12) or vehicle (i.p., n = 12) and followed for 8 weeks (Figs. 1; n = 2 rats per group were removed due to poor nigral targeting). The dose of SMM-189 was based on a pharmacokinetic study in mice determining therapeutic brain-blood ratios as described below. […]
An additional cohort of rats (termed “high cohort”) was evaluated to determine effects of SMM-189 on immune cell populations in the brain, resident or infiltrating, and the periphery as measured by flow cytometry (Fig. 1). […] Brains were collected at endpoints, and brain immune cells isolated and evaluated using multicolor flow cytometry. […]

[2] = tested on: pSer129 and total human Asyn in striatum; test: Western immunoblot of pSer129 and total human Asyn in striatal lysates; assay type: in vivo; conditions: rat low cohort, striatum ipsilateral to AAV, 6 mg/kg i.p. daily 7 weeks, vs vehicle
Procedure: Sprague Dawley male rats (16–18 weeks of age, 400–525 g) were purchased from Charles River Laboratories and acclimated to Emory University animal facilities. Rats were pair housed in standard plexiglass cages under normal 12-hr light cycles and handled in accordance with protocols approved by the IACUC of Emory University in Atlanta, GA. Rats were administered unilateral injections of AAV2/5-human wild-type (WT) Asyn at titers of 2.9–4.3 × 10^11 vector genomes (vg)/mL (termed “low cohort”), which was previously shown to not induce nigral neurotoxicity. Thereby, generating a model with overexpression of human WT Asyn and Asyn-mediated neuroinflammation. […]
Striatal tissue from successfully targeted low cohort rats was homogenized in ice-cold TriZOL lysed using the TissueLyser system. […] Total protein concentrations were measured using Pierce BCA Protein Assay Kit and equal amount of protein (10–20 µg) mixed with Laemmli sample buffer were loaded in 4–20% TGX precast gels (Biorad) for gel electrophoresis. […] Revert staining was captured and measured on the Licor Odyssey at 700 nm for 30 s.
Non-specific protein binding was blocked with 5% milk and 0.1% Tween-20 in TBS for 1 h at room temperature, and membranes incubated with primary antibodies overnight at 4°C. […] The density of the band was quantified using StudioLite software. […]

[3] = tested on: tyrosine hydroxylase, phosphorylated tyrosine hydroxylase, dopamine transporter, IBA1, GFAP in striatum; test: Western immunoblot of dopaminergic and glial markers in striatal lysates; assay type: in vivo; conditions: rat low cohort, 6 mg/kg i.p. daily 7 weeks, vs vehicle
Procedure: Striatal tissue from successfully targeted low cohort rats was homogenized in ice-cold TriZOL lysed using the TissueLyser system. Homogenates were incubated with 20% chloroform and centrifuged at 13,523g for 15 min at 4°C. Protein pellets were washed in methanol twice and resuspended in 1% SDS and heated to 50°C. Total protein concentrations were measured using Pierce BCA Protein Assay Kit and equal amount of protein (10–20 µg) mixed with Laemmli sample buffer were loaded in 4–20% TGX precast gels (Biorad) for gel electrophoresis. Protein was transferred to a PVDF membrane (Biorad) using a Trans Blot Turbo Transfer System, the immunoblots were immediately fixed with 0.4% paraformaldehyde (PFA) for 30 min and stained for total protein using Revert 700 (Licor) for reliable normalization. Revert staining was captured and measured on the Licor Odyssey at 700 nm for 30 s.
Non-specific protein binding was blocked with 5% milk and 0.1% Tween-20 in TBS for 1 h at room temperature, and membranes incubated with primary antibodies overnight at 4°C. The blots were washed with 0.1%TBS-Tween-20, incubated with appropriate horseradish peroxidase-conjugated secondary antibodies (1:2000) at room temperature for 1 h and developed with SuperSignal West Femto Enhancer or Pico Peroxide solutions under a chemiluminescent detection imaging system (Licor Odyssey). The density of the band was quantified using StudioLite software. Relative expression levels were normalized to its own total protein and to vehicle average expression level.

O=C(c1ccccc1)c1cc(O)c(-c2cc(Cl)cc(Cl)c2)c(O)c1 [SMM-189]
Rats weight, difference between treatment groups [1]: no significant differences
pS129 levels in striatum, western [2]: reduced
total human Asyn levels in striatum, western [2]: no differences
myeloid marker IBA1 in striatum, western [3]: no differences
phosphorylated tyrosine hydroxylase in striatal lysates [3]: no significant changes
tyrosine hydroxylase in striatal lysates [3]: no significant changes
astrocyte marker GFAP expression levels in striatum, western ([3]; p = 0.0746): trend to decrease
dopamine transporter in striatal lysates ([3]; trend to increase p = 0.051): no significant changes
